Data from PubChem BioAssay AID226 (DTP/NCI, 2004).
Several values for one entry are separate records, joined by “and”; a condition that tells them apart may be missing. Equal entries are not always repeated. Toxic doses and inconclusive results are not listed. Rule for the calls: active = survival T/C of 150% or more; inactive = T/C below 125% in these data.

Test system: B6C3F1 mice, intracerebral ependymoblastoma, median survival T/C
Test: NCI In Vivo Anticancer Drug Screen. Data for tumor model Ependymoblastoma (intracerebral) in B6C3F1 mice
Settings: endpoint: median survival time, higher = longer survival
Experimental: The antitumor activity of compounds was measured in mice bearing transplantable tumors. Survival or tumor size were measured and the results are expressed as the measurement made in the treated group (T) divided by the measurement made in the vehicle treated control group (C). The tumor model used in this assay is Ependymoblastoma (intracerebral) in B6C3F1 mice

[1] = dose: 32.0 mg/kg/injection, schedule: Q01DX005 (ip), vehicle: saline with Tween-80
[2] = dose: 64.0 mg/kg/injection, schedule: Q01DX005 (ip), vehicle: saline with Tween-80
[3] = dose: 256.0 mg/kg/injection, schedule: Q01DX005 (ip), vehicle: saline with Tween-80

Measured: T/C

NC(C/[N+]([O-])=N/O)C(=O)O (stereo unspecified)
inactive: dose: 7.0 mg/kg/injection, schedule: Q01DX005 (ip), vehicle: saline with Tween-80 111 % of control | dose: 12.5 mg/kg/injection, schedule: Q01DX009 (ip), vehicle: Klucel (hydroxypropylcellulose) (HPC) 110 % of control | dose: 14.0 mg/kg/injection, schedule: Q01DX005 (ip), vehicle: saline with Tween-80 109 % of control | dose: 16.0 mg/kg/injection, schedule: Q01DX005 (ip), vehicle: saline with Tween-80 114 % of control | dose: 25.0 mg/kg/injection, schedule: Q01DX009 (ip), vehicle: Klucel (hydroxypropylcellulose) (HPC) 119 % of control | dose: 28.0 mg/kg/injection, schedule: Q01DX005 (ip), vehicle: saline with Tween-80 118 % of control | [1] 118 % of control | dose: 50.0 mg/kg/injection, schedule: Q01DX009 (ip), vehicle: Klucel (hydroxypropylcellulose) (HPC) 112 % of control | dose: 56.0 mg/kg/injection, schedule: Q01DX005 (ip), vehicle: saline with Tween-80 119 % of control | [2] 117 % of control | dose: 112.0 mg/kg/injection, schedule: Q01DX005 (ip), vehicle: saline with Tween-80 122 % of control | [3] 109 % of control

Cc1cnc(/C=N\NC(N)=S)c2cccc(N)c12
inactive: dose: 12.5 mg/kg/injection, schedule: Q01DX005 (ip), vehicle: saline with Tween-80 100 % of control | dose: 25.0 mg/kg/injection, schedule: Q01DX005 (ip), vehicle: saline with Tween-80 103 % of control | dose: 50.0 mg/kg/injection, schedule: Q01DX005 (ip), vehicle: saline with Tween-80 104 % of control | dose: 100.0 mg/kg/injection, schedule: Q01DX005 (ip), vehicle: saline with Tween-80 102 % of control

NC(=O)c1ncn(C2OC(CO)C(O)C2O)c1O (stereo unspecified)
inactive: dose: 25.0 mg/kg/injection, schedule: Q01DX005 (ip), vehicle: Klucel (hydroxypropylcellulose) (HPC) 92 % of control | dose: 50.0 mg/kg/injection, schedule: Q01DX005 (ip), vehicle: Klucel (hydroxypropylcellulose) (HPC) 101 % of control and 115 % of control | dose: 100.0 mg/kg/injection, schedule: Q01DX005 (ip), vehicle: Klucel (hydroxypropylcellulose) (HPC) 96 % of control and 101 % of control | dose: 200.0 mg/kg/injection, schedule: Q01DX005 (ip), vehicle: Klucel (hydroxypropylcellulose) (HPC) 105 % of control and 115 % of control | dose: 400.0 mg/kg/injection, schedule: Q01DX005 (ip), vehicle: Klucel (hydroxypropylcellulose) (HPC) 111 % of control

COc1cc2cc3c4cc(OC)c(OC)cc4cc[n+]3c(C)c2cc1OC (tested in a mixture with another compound)
inactive: dose: 16.0 mg/kg/injection, schedule: Q01DX005 (ip), vehicle: saline 94 % of control and 98 % of control and 111 % of control | dose: 32.0 mg/kg/injection, schedule: Q01DX005 (ip), vehicle: saline 100 % of control (2×) and 120 % of control | dose: 64.0 mg/kg/injection, schedule: Q01DX005 (ip), vehicle: saline 102 % of control and 105 % of control and 118 % of control | dose: 128.0 mg/kg/injection, schedule: Q01DX005 (ip), vehicle: saline 104 % of control and 109 % of control | dose: 256.0 mg/kg/injection, schedule: Q01DX005 (ip), vehicle: saline 106 % of control

CCC(=O)O[C@H]1CC[C@H]2[C@@H]3[C@@H](C)CC4=CC(=O)CC[C@]4(C)[C@H]3CC[C@]12C
inactive: [1] 99 % of control and 106 % of control | [2] 97 % of control and 106 % of control | dose: 128.0 mg/kg/injection, schedule: Q01DX005 (ip), vehicle: saline with Tween-80 97 % of control and 101 % of control | [3] 101 % of control and 89 % of control | dose: 512.0 mg/kg/injection, schedule: Q01DX005 (ip), vehicle: saline with Tween-80 93 % of control and 100 % of control | dose: 768.0 mg/kg/injection, schedule: Q01DX005 (ip), vehicle: saline with Tween-80 94 % of control

CC(=O)O[C@H]1C(=O)[C@@]2(C)[C@H]([C@H](OC(=O)c3ccccc3)[C@]3(O)C[C@H](OC(=O)[C@H](O)[C@@H](NC(=O)c4ccccc4)c4ccccc4)C(C)=C1C3(C)C)[C@]1(OC(C)=O)CO[C@@H]1C[C@@H]2O
inactive: dose: 2.5 mg/kg/injection, schedule: Q01DX005 (ip), vehicle: Klucel (hydroxypropylcellulose) (HPC) 107 % of control | dose: 5.0 mg/kg/injection, schedule: Q01DX005 (ip), vehicle: Klucel (hydroxypropylcellulose) (HPC) 101 % of control | dose: 10.0 mg/kg/injection, schedule: Q01DX005 (ip), vehicle: Klucel (hydroxypropylcellulose) (HPC) 91 % of control and 106 % of control | dose: 20.0 mg/kg/injection, schedule: Q01DX005 (ip), vehicle: Klucel (hydroxypropylcellulose) (HPC) 91 % of control
